The results in this text go back to US20030095958A1, “Inhibitors of bace” (priority 2001, published 2003).

Where only a bound is given, the exact number is not on record here.

BACE, sequence (P56817 46-501): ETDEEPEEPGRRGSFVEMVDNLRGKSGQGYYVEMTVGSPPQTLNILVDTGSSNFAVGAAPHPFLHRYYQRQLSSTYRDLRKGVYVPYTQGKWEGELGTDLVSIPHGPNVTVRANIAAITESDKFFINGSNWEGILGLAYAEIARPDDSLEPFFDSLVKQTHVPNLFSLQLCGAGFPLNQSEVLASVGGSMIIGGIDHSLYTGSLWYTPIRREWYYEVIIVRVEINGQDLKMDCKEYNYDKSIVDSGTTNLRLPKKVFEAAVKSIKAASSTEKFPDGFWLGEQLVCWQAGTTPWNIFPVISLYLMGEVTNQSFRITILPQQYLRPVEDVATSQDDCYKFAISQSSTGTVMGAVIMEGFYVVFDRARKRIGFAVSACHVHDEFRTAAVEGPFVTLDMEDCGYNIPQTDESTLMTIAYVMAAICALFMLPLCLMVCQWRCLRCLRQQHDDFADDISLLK

The target in the test is BACE (Homo sapiens, UniProt P56817). Put plainly: Ki Determination for the Inhibition of BACE (FS-1 peptide fluorescence cleavage assay). It is filed as biochemical. To be noted: apparent Ki; 50 nM BACE, 10 μM FS-1 substrate, 0.1M sodium acetate pH 4.5. In outline:
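Apparent Ki values derive from fitting fluorescence progress data (355 nm excitation, 495 nm emission) of FS-1 peptide cleavage to an integrated competitive tight-binding model. Reactions held 50 nM BACE, 10 μM substrate and inhibitor in 2% DMSO, pH 4.5 acetate buffer, with a 15 min enzyme-compound preincubation at room temperature.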
Consider `O=C(Nc1cc(C(F)(F)F)ccc1N1CCNCC1)Oc1ccc2ccccc2c1` [Compound 151, (2-Piperazin-1-yl-5-trifluoromethyl-phenyl)-carbamic acid naphthalen-2-yl ester], for which the Ki lay in the range of 3 to 30 µM.

For the compound `CC(=O)c1ccccc1-c1cc(COc2ccccc2C(F)(F)F)c(C2=CCNCC2)cc1COc1ccccc1C(F)(F)F` [Compound 350, 1-[4′-(1,2,3,6-Tetrahydro-pyridin-4-yl)-2′,5′-bis-(2-trifluoromethyl-phenoxymethyl)-biphenyl-2-yl]-ethanone], the Ki is less than 3 µM.

Consider `FC(F)(F)c1ccccc1OCc1ccc(COc2cccc3ncccc23)c(C2=CCNCC2)c1` [Compound 327, 5-[2-(1,2,3,6-Tetrahydro-pyridin-4-yl)-4-(2-trifluoromethyl-phenoxymethyl)-benzyloxy]-quinoline], for which the Ki was less than 3 µM.

Take `FC(F)(F)c1ccccc1COc1ccc2c(c1)c1c(n2Cc2ccc3ccccc3c2)CNCC1` [Compound 535, 9-Naphthalen-2-ylmethyl-6-(2-trifluoromethyl-benzyloxy)-2,3,4,9-tetrahydro-1H-b-carboline]: the Ki is less than 3 µM.

Consider `O=C(Nc1cc(-c2cccc(C(F)(F)F)c2)ccc1N1CCNCC1)c1cccc2ccccc12` [Compound 128, Naphthalene-1-carboxylic acid (4-piperazin-1-yl-3′-trifluoromethyl-biphenyl-3-yl)-amide], for which the Ki is 3 to 30 µM.

With `CN(C)C(=O)C1CN(c2ccc(-c3ccc(C(F)(F)F)cc3)cc2NCc2ccc3ccccc3c2)CCN1` (stereo not shown) [Compound 195, 4-{3-[(Naphthalen-2-ylmethyl)-amino]-4′-trifluoromethyl-biphenyl-4-yl}-piperazine-2-carboxylic acid dimethylamide], the Ki is less than 3 µM.

In the case of `Cc1c(COc2ccc3c(c2)c2c(n3Cc3ccc4ccccc4c3)CNCC2)cccc1C(F)(F)F` [Compound 522, 6-(2-Methyl-3-trifluoromethyl-benzyloxy)-9-naphthalen-2-ylmethyl-2,3,4,9-tetrahydro-1H-b-carboline], the Ki is less than 3 µM.

Consider `Oc1ccc(-c2cc(COc3ccccc3C(F)(F)F)c(C3=CCNCC3)cc2COc2ccccc2C(F)(F)F)cc1` [Compound 352, 4′-(1,2,3,6-Tetrahydro-pyridin-4-yl)-2′,5′-bis-(2-trifluoromethyl-phenoxymethyl)-biphenyl-4-ol], for which the Ki was less than 3 µM.

Take `O=C(c1ccc2ccccc2c1)n1c2c(c3cc(OCc4ccc(OC(F)F)cc4)ccc31)CCNC2` [Compound 515, [6-(4-Difluoromethoxy-benzyloxy)-1,2,3,4-tetrahydro-b-carbolin-9-yl]-naphthalen-2-yl-methanone]: the Ki is less than 3 µM.

With `COc1cc(COc2ccc3c(c2)c2c(n3C(=O)c3cccc4ccccc34)CNCC2)cc(OC)c1` [Compound 526, [6-(3,5-Dimethoxy-benzyloxy)-1,2,3,4-tetrahydro-b-carbolin-9-yl]-naphthalen-1-yl-methanone], the Ki was less than 3 µM.

Regarding `FC(F)(F)c1ccccc1OCc1cc(-c2ccncc2)c(COc2ccccc2C(F)(F)F)cc1C1=CCNCC1` [Compound 341, 4-[4-(1,2,3,6-Tetrahydro-pyridin-4-yl)-2,5-bis-(2-trifluoromethyl-phenoxymethyl)-phenyl]-pyridine], the Ki is less than 3 µM.

Take `COc1cc(COc2ccc3c(c2)c2c(n3Cc3cccc4ccccc34)CNCC2)cc(OC)c1` [Compound 525, 6-(3,5-Dimethoxy-benzyloxy)-9-naphthalen-1-ylmethyl-2,3,4,9-tetrahydro-1H-b-carboline]: the Ki was less than 3 µM.

With `O=C(NCC1CNCCC1c1ccc(COc2ccccc2C(F)(F)F)cc1)Oc1ccc2ccccc2c1` (stereo not shown) [Compound 228, {4-[4-(2-Trifluoromethyl-phenoxymethyl)-phenyl]-piperidin-3-ylmethyl}-carbamic acid naphthalen-2-yl ester], the Ki was less than 3 µM.

`O=C(NC1CCCc2ccccc21)C1CNCCC1c1ccc(COc2ccccc2C(F)(F)F)cc1` (stereo not shown) [Compound 209, 4-[4-(2-Trifluoromethyl-phenoxymethyl)-phenyl]-piperidine-3-carboxylic acid (1,2,3,4-tetrahydro-naphthalen-1-yl)-amide]: the Ki was 3 to 30 µM.

With `FC(F)(F)c1ccccc1OCc1cc(-c2ccsc2)c(COc2ccccc2C(F)(F)F)cc1C1=CCNCC1` [Compound 342, 4-[4-Thiophen-3-yl-2,5-bis-(2-trifluoromethyl-phenoxymethyl)-phenyl]-1,2,3,6-tetrahydro-pyridine], the Ki is less than 3 µM.

Turning to `O=C(c1cccc2ccccc12)n1c2c(c3cc(OCc4ccccc4OC(F)F)ccc31)CCNC2` [Compound 529, [6-(2-Difluoromethoxy-benzyloxy)-1,2,3,4-tetrahydro-b-carbolin-9-yl]-naphthalen-1-yl-methanone], the Ki was less than 3 µM.

Regarding `c1ccc(COc2ccc3c(c2)c2c(n3Cc3ccc4ccccc4c3)CNCC2)cc1` [Compound 305, 6-Benzyloxy-9-naphthalen-2-ylmethyl-2,3,4,9-tetrahydro-1H-b-carboline], the Ki was in the range of 3 to 30 µM.

As for `O=C(c1cccc2ccccc12)n1c2c(c3cc(OCc4cc(C(F)(F)F)ccc4C(F)(F)F)ccc31)CCNC2` [Compound 517, [6-(2,5-Bis-trifluoromethyl-benzyloxy)-1,2,3,4-tetrahydro-b-carbolin-9-yl]-naphthalen-1-yl-methanone], the Ki was less than 3 µM.

As to `CC(NC(=O)C1CNCCC1c1ccc(-c2ccccc2)cc1)c1cccc2ccccc12` (stereo not shown) [Compound 407], the Ki fell in the range of 3 to 30 µM.

Consider `FC(F)(F)c1ccccc1OCc1ccc(COc2ccccc2C(F)(F)F)c(N2CCNCC2)c1` [Compound 116, 1-[2,5-Bis-(2-trifluoromethyl-phenoxymethyl)-phenyl]-piperazine], for which the Ki is less than 3 µM.

With `O=C(Nc1ccc2ccccc2c1)C1CNCCC1c1ccc(COc2ccccc2C(F)(F)F)cc1` (stereo not shown) [Compound 216, 4-[4-(2-Trifluoromethyl-phenoxymethyl)-phenyl]-piperidine-3-carboxylic acid naphthalen-2-ylamide], the Ki is 3 to 30 µM.

For `COc1ccc(-c2cc(COc3ccccc3C(F)(F)F)c(C3=CCNCC3)cc2COc2ccccc2C(F)(F)F)cc1` [Compound 365, 4-[4′-Methoxy-2,5-bis-(2-trifluoromethyl-phenoxymethyl)-biphenyl-4-yl]-1,2,3,6-tetrahydro-pyridine], the Ki was less than 3 µM.

Turning to `O=C(Nc1cc(-c2ccc(F)cc2)ccc1N1CCNCC1)c1cccc2ccccc12` [Compound 103, Naphthalene-1-carboxylic acid (4′-fluoro-4-piperazin-1-yl-biphenyl-3-yl)-amide], the Ki is 3 to 30 µM.

Turning to `O=C(OCc1cc(C2=CCNCC2)c(COc2ccccc2C(F)(F)F)cc1-c1ccoc1)c1ccncc1` [Compound 390, Isonicotinic acid 2-furan-3-yl-5-(1,2,3,6-tetrahydro-pyridin-4-yl)-4-(2-trifluoromethyl-phenoxymethyl)-benzyl ester], the Ki is less than 3 µM.

In the case of `FC(F)(F)c1ccccc1OCc1cc(-c2cccs2)c(COc2ccccc2C(F)(F)F)cc1C1=CCNCC1` [Compound 345, 4-[4-Thiophen-2-yl-2,5-bis-(2-trifluoromethyl-phenoxymethyl)-phenyl]-1,2,3,6-tetrahydro-pyridine], the Ki is less than 3 µM.

As to `O=S(=O)(Nc1cc(C(F)(F)F)ccc1N1CCNCC1)c1ccc2ccccc2c1` [Compound 136, Naphthalene-2-sulfonic acid (2-piperazin-1-yl-5-trifluoromethyl-phenyl)-amide], the Ki is more than 30 µM.

Consider `FC(F)(F)c1ccccc1OCc1cc(-c2ccccc2)ccc1C1=CCNCC1` [Compound 360, 4-[3-(2-Trifluoromethyl-phenoxymethyl)-biphenyl-4-yl]-1,2,3,6-tetrahydro-pyridine], for which the Ki was less than 3 µM.

For `Cc1c(COc2ccc3c(c2)c2c(n3C(=O)c3cccc4ccccc34)CNCC2)cccc1C(F)(F)F` [Compound 523, [6-(2-Methyl-3-trifluoromethyl-benzyloxy)-1,2,3,4-tetrahydro-b-carbolin-9-yl]-naphthalen-1-yl-methanone], the Ki is less than 3 µM.

Turning to `O=C(CNC(=O)C(Cc1ccccc1)NC(=O)OCc1ccccc1)NCC1CNCCC1c1ccc(COc2ccccc2C(F)(F)F)cc1` (stereo not shown) [Compound 225, (2-Phenyl-1-{[({4-[4-(2-trifluoromethyl-phenoxymethyl)-phenyl]-piperidin-3-ylmethyl}-carbamoyl)-methyl]-carbamoyl}-ethyl)-carbamic acid benzyl ester], the Ki was 3 to 30 µM.

Take `FC(F)(F)c1cccc(OCc2ccc(COc3ccccc3C(F)(F)F)cc2C2=CCNCC2)c1` [Compound 324, 4-[5-(2-Trifluoromethyl-phenoxymethyl)-2-(3-trifluoromethyl-phenoxymethyl)-phenyl]-1,2,3,6-tetrahydro-pyridine]: the Ki is less than 3 µM.

`FC(F)Oc1ccc(COc2ccc3c(c2)c2c(n3Cc3cccc4ccccc34)CNCC2)cc1` [Compound 512, 6-(4-Difluoromethoxy-benzyloxy)-9-naphthalen-1-ylmethyl-2,3,4,9-tetrahydro-1H-b-carboline]: the Ki was less than 3 µM.

Take `O=C(Nc1cc(-c2ccoc2)c(COc2ccccc2C(F)(F)F)cc1N1CCNCC1)c1nccc2ccccc12` [Compound 187, Isoquinoline-1-carboxylic acid [5-furan-3-yl-2-piperazin-1-yl-4-(2-trifluoromethyl-phenoxymethyl)-phenyl]-amide]: the Ki is less than 3 µM.

For the compound `O=C(OCc1ccc(COc2ccccc2C(F)(F)F)cc1C1=CCNCC1)Oc1cccc2ccccc12` [Compound 318, Carbonic acid naphthalen-1-yl ester 2-(1,2,3,6-tetrahydro-pyridin-4-yl)-4-(2-trifluoromethyl-phenoxymethyl)-benzyl ester], the Ki is less than 3 µM.

As to `O=S(=O)(NCC1CNCCC1c1ccc(COc2ccccc2C(F)(F)F)cc1)c1ccc2ccccc2c1` (stereo not shown) [Compound 231, Naphthalene-2-sulfonic acid {4-[4-(2-trifluoromethyl-phenoxymethyl)-phenyl]-piperidin-3-ylmethyl}-amide], the Ki is less than 3 µM.
